Laboratory results: US6875865B1, “Selected derivatives of K-252a” (Cephalon, Inc., priority 1996, dated 2005)

How the values were obtained:
[1] = system: dissociated spinal cord cultures; assay: Spinal Cord ChAT Activity Assay; assay type: cell-based, rat
Description: The effect of selected ring substituted K-252a derivatives on CHAT activity was assayed in dissociated spinal cord cultures prepared from fetal rats using the procedure described in U.S. Pat. No. 5,461,146, Columns 26 and 27, Examples 6 and 7. ChAT is the enzyme that catalyzes the synthesis of the neurotransmitter acetylcholine, and it is a specific biochemical marker for cholinergic neurons. In the spinal cord, the large majority of cholinergic neurons are motor neurons. Assay of this enzyme may thus be used as an indication of the effects of a factor, or actors, on the survival of cholinergic neurons and/or regulation of this enzyme.
(§1) Compounds which increased ChAT activity at least 120% of the control activity are considered active.

basal forebrain cultures = assay: Basal Forebrain ChAT Activity Assay; assay type: cell-based, rat; conditions: day six
Description: Compounds of the invention were assessed for their ability to promote survival and increase in ChAT activity in basal forebrain cultures. ChAT activity in these cultures is a biochemical marker for the cholinergic neurons (less than 5% of the cells in culture), which represent the major cholinergic input to the hippocampal formation, olfactory nucleus, interpeduncular nucleus, cortex, amygdala, and parts of the thalamus. […] The basal forebrain was dissected from embryonic day 17 or 18 rat embryos and the cells were […] with Dispase™ (neutral protease, Collaborative Research). Neurons were plated at 5×10^4 cells/well (1.5×10^5 cells/cm^2) in wells of 96-well plates previously coated with […] and laminin. Cells were cultured in serum-free N2 medium containing 0.05% bovine serum albumin (BSA) (Bottenetein et al., supra) at 37° in a humidified atmosphere of 5% CO2/95% air. ChAT activity was measured in vitro at day six, using a modification of the Formum procedure (supra) according to McManaman et al. (supra) and Glicksman et al. (J. Neurochem. 61:210-221, 1993).
as §1

[2] = concentration not given, tested between 10 nM and 500 nM, at least 120% of control = active
[3] = concentration not given, at least 120% of control = active

Compound	ChAT Activity maximum efficacy % of Control (conc) ([1]; maximum efficacy at 300 nM)	ChAT Activity maximum efficacy % of Control (conc) (basal forebrain cultures; maximum efficacy at 250 nM)	also measured
CCOC(=O)C=Cc1ccc2c(c1)c1c3c(c4c5ccccc5n5c4c1n2C1(C)OC5CC1(O)C(=O)OC)C(=O)NC3 (centres unmarked) [Compound 12]	269 (300 nM) % of Control	–	ChAT Activity maximum efficacy % of Control (conc) (basal forebrain cultures; maximum efficacy at 500 nM): 184 (500 nM) % of Control
COC(=O)C1(O)CC2OC1(C)n1c3ccc(C=Cc4ccccn4)cc3c3c4c(c5c6ccccc6n2c5c31)C(=O)NC4 (centres unmarked) [Compound 13]	–	–	ChAT Activity maximum efficacy % of Control (conc) ([1]; maximum efficacy at 30 nM): 271 (30 nM) % of Control; ChAT Activity maximum efficacy % of Control (conc) (basal forebrain cultures; maximum efficacy at 100 nM): 167 (100 nM) % of Control
COC(=O)C1(O)CC2OC1(C)n1c3ccc(CCc4ccccn4)cc3c3c4c(c5c6ccccc6n2c5c31)C(=O)NC4 (centres unmarked) [Compound 14]	282 (300 nM) % of Control	–	ChAT Activity maximum efficacy % of Control (conc) (basal forebrain cultures; maximum efficacy at 500 nM): 229 (500 nM) % of Control
CCSCC(=O)c1ccc2c(c1)c1c3c(c4c5ccccc5n5c4c1n2C1(C)OC5CC1(O)C(=O)OC)C(=O)NC3 (centres unmarked) [Compound 41]	204 (300 nM) % of Control	–	ChAT Activity maximum efficacy % of Control (conc) (basal forebrain cultures; [2]): <120 % of Control
COC(=O)C1(O)CC2OC1(C)n1c3ccc(C(=O)CSc4nnnn4C)cc3c3c4c(c5c6cc(C(=O)CSc7nnnn7C)ccc6n2c5c31)C(=O)NC4 (centres unmarked) [Compound 52]	–	–	ChAT Activity maximum efficacy % of Control (conc) [1, 3]: <120 % of Control; ChAT Activity maximum efficacy % of Control (conc) (basal forebrain cultures; [2]): <120 % of Control
COCCC(=O)c1ccc2c(c1)c1c3c(c4c5cc(C(=O)CCOC)ccc5n5c4c1n2C1CC(O)(C(=O)OC)C5(C)O1)CNC3=O (centres unmarked) [Compound 54]	–	167 (250 nM) % of Control	ChAT Activity maximum efficacy % of Control (conc) [1, 3]: <120 % of Control
COC(=O)C1(O)CC2OC1(C)n1c3ccc(C(O)CCCl)cc3c3c4c(c5c6cc(C(O)CCCl)ccc6n2c5c31)C(=O)NC4 (centres unmarked) [Compound 59]	160 (300 nM) % of Control	131 (250 nM) % of Control	–
COC(=O)C1(O)CC2OC1(C)n1c3ccc(C#CCN(C)Cc4ccccc4)cc3c3c4c(c5c6cc(Br)ccc6n2c5c31)C(=O)NC4 (centres unmarked) [Compound 62]	235 (300 nM) % of Control	–	ChAT Activity maximum efficacy % of Control (conc) (basal forebrain cultures; maximum efficacy at 50 nM): 202 (50 nM) % of Control
CCC=Cc1ccc2c(c1)c1c3c(c4c5cc(C=CCC)ccc5n5c4c1n2C1CC(O)(C(=O)OC)C5(C)O1)CNC3=O (centres unmarked) [Compound 68]	291 (300 nM) % of Control	290 (250 nM) % of Control	–
COC(=O)C1(O)CC2OC1(C)n1c3ccc(CCO)cc3c3c4c(c5c6cc(CCO)ccc6n2c5c31)C(=O)NC4 (centres unmarked) [Compound 70c]	186 (300 nM) % of Control	203 (250 nM) % of Control	–
COC(=O)C1(O)CC2OC1(C)n1c3ccc(CCOC(=O)c4ccncc4)cc3c3c4c(c5c6cc(CCOC(=O)c7ccncc7)ccc6n2c5c31)C(=O)NC4 (centres unmarked) [Compound 71]	193 (300 nM) % of Control	152 (250 nM) % of Control	–
COC(=O)C1(O)CC2OC1(C)n1c3ccc(CCN=[N+]=[N-])cc3c3c4c(c5c6cc(CCN=[N+]=[N-])ccc6n2c5c31)C(=O)NC4 (centres unmarked) [Compound 81]	131 (300 nM) % of Control	–	ChAT Activity maximum efficacy % of Control (conc) (basal forebrain cultures; [2]): <120 % of Control
COC(=O)C1(O)CC2OC1(C)n1c3ccc(CCSC)cc3c3c4c(c5c6cc(CCSC)ccc6n2c5c31)C(=O)NC4 (centres unmarked) [Compound 87]	294 (300 nM) % of Control	262 (250 nM) % of Control	–
CCSCCc1ccc2c(c1)c1c3c(c4c5cc(CCSCC)ccc5n5c4c1n2C1CC(O)(C(=O)OC)C5(C)O1)CNC3=O (centres unmarked) [Compound 88]	190 (300 nM) % of Control	–	ChAT Activity maximum efficacy % of Control (conc) (basal forebrain cultures; [2]): <120 % of Control
CCOCOCc1ccc2c(c1)c1c3c(c4c5cc(COCOCC)ccc5n5c4c1n2C1CC(O)(C(=O)OC)C5(C)O1)CNC3=O (centres unmarked) [Compound 156]	217 (300 nM) % of Control	–	–
